PubChem BioAssay AID2060332 (Molecular Pharmacology Branch, DTP, NCI, 2025)

Tested on: LG0567-F671-PDC multi-cell spheroid viability
Assay: Anticancer human tumor LG0567-F671-PDC patient-derived lung adenocarcinoma cell line growth inhibition [IpAb]
Details: for IC50: curve of first compound; for viability, T/C: stronger effect = lower value
Procedure, shortened: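 Multi-cell spheroids of 60% tumour cells, 25% HUVEC and 15% MSC in ultra-low-attachment U-bottom wells, treated with agents combined with ipatasertib or abemaciclib. Half-log ranges top out near clinical Cmax, or 10 microM when Cmax is unknown.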

[1] = second compound 0.01 µM, first compound 0.0316 µM
[2] = second compound 0.01 µM, first compound 0.1 µM
[3] = second compound 0.01 µM, first compound 0.316 µM
[4] = second compound 0.01 µM, first compound 1 µM
[5] = second compound 0.0316 µM, first compound 0.0316 µM
[6] = second compound 0.0316 µM, first compound 0.1 µM
[7] = second compound 0.0316 µM, first compound 0.316 µM
[8] = second compound 0.0316 µM, first compound 1 µM
[9] = second compound 0.1 µM, first compound 0.0316 µM
[10] = second compound 0.1 µM, first compound 0.1 µM
[11] = second compound 0.1 µM, first compound 0.316 µM
[12] = second compound 0.1 µM, first compound 1 µM
[13] = second compound 0.316 µM, first compound 0.0316 µM
[14] = second compound 0.316 µM, first compound 0.1 µM
[15] = second compound 0.316 µM, first compound 0.316 µM
[16] = second compound 0.316 µM, first compound 1 µM
[17] = second compound 1 µM, first compound 0.0316 µM
[18] = second compound 1 µM, first compound 0.1 µM
[19] = second compound 1 µM, first compound 0.316 µM
[20] = second compound 1 µM, first compound 1 µM
[21] = second compound 0.01 µM, first compound 3.16 µM
[22] = second compound 0.01 µM, first compound 10 µM
[23] = second compound 0.0316 µM, first compound 3.16 µM
[24] = second compound 0.0316 µM, first compound 10 µM
[25] = second compound 0.1 µM, first compound 3.16 µM
[26] = second compound 0.1 µM, first compound 10 µM
[27] = second compound 0.316 µM, first compound 3.16 µM
[28] = second compound 0.316 µM, first compound 10 µM
[29] = second compound 1 µM, first compound 3.16 µM
[30] = second compound 1 µM, first compound 10 µM
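Further: viability read after 7 days of drug exposure.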
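Wherever viability, T/C is given: 100% = DMSO vehicle control luminescence.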

With `COc1c(OCCCN2CCOCC2)ccc2c3n(c(=NC(=O)c4cnc(N)nc4)nc12)CCN3` + CCN1CCN(Cc2ccc(Nc3ncc(F)c(-c4cc(F)c5nc(C)n(C(C)C)c5c4)n3)nc2)CC1 the IC50 (second compound 0.01 µM) was 76.5 nM, the IC50 (second compound 0.0316 µM) was 60.9 nM and the IC50 (second compound 0.1 µM) was 60 nM. The IC50 (second compound 0.316 µM) was 22.8 nM, the IC50 (second compound 1 µM) was 73.4 nM and the viability, T/C (second compound 0.01 µM, first compound 0.00316 µM) was 85.5%. It also gave a viability, T/C (second compound 0.01 µM, first compound 0.01 µM) of 72.7%, a viability, T/C [1] of 77.5% and a viability, T/C [2] of 41.6%. The viability, T/C [3] was 36.5%, the viability, T/C [4] was 31.8% and the viability, T/C (second compound 0.0316 µM, first compound 0.00316 µM) was 105%. It also gave a viability, T/C (second compound 0.0316 µM, first compound 0.01 µM) of 74.6%, a viability, T/C [5] of 60.5% and a viability, T/C [6] of 43.1%. For the same compound, the viability, T/C [7] was 34.5%, the viability, T/C [8] was 17.6% and the viability, T/C (second compound 0.1 µM, first compound 0.00316 µM) was 73%. It also gave a viability, T/C (second compound 0.1 µM, first compound 0.01 µM) of 63.4%, a viability, T/C [9] of 62.5% and a viability, T/C [10] of 40.4%. It also gave a viability, T/C [11] of 32.5%, a viability, T/C [12] of 26.6% and a viability, T/C (second compound 0.316 µM, first compound 0.00316 µM) of 67.8%. It also gave a viability, T/C (second compound 0.316 µM, first compound 0.01 µM) of 74.2%, a viability, T/C [13] of 41.6% and a viability, T/C [14] of 33.2%. It also gave a viability, T/C [15] of 31.5%, a viability, T/C [16] of 20.5% and a viability, T/C (second compound 1 µM, first compound 0.00316 µM) of 69.7%. For the same compound, the viability, T/C (second compound 1 µM, first compound 0.01 µM) was 71.1%, the viability, T/C [17] was 56% and the viability, T/C [18] was 43.2%. For the same compound, the viability, T/C [19] was 40.8% and the viability, T/C [20] was 25.1%.
Work on `Cc1nc(NC(=O)N2CCCC2C(N)=O)sc1-c1ccnc(C(C)(C)C(F)(F)F)c1` (stereo not given) + CCN1CCN(Cc2ccc(Nc3ncc(F)c(-c4cc(F)c5nc(C)n(C(C)C)c5c4)n3)nc2)CC1 yielded an IC50 (second compound 0.01 µM) of 1080 nM, an IC50 (second compound 0.0316 µM) of 658 nM and an IC50 (second compound 0.1 µM) of 387 nM. It also gave an IC50 (second compound 0.316 µM) of 181 nM, an IC50 (second compound 1 µM) of 481 nM and a viability, T/C [1] of 80.2%. It also gave a viability, T/C [2] of 66.6%, a viability, T/C [3] of 56% and a viability, T/C [4] of 54.3%. For the same compound, the viability, T/C [21] was 43.5%, the viability, T/C [22] was 32.4% and the viability, T/C [5] was 51.6%. For the same compound, the viability, T/C [6] was 75.1%, the viability, T/C [7] was 57.4% and the viability, T/C [8] was 44.6%. It also gave a viability, T/C [23] of 41.1%, a viability, T/C [24] of 33.7% and a viability, T/C [9] of 57.4%. The viability, T/C [10] was 56.8%, the viability, T/C [11] was 49.2% and the viability, T/C [12] was 46%. For the same compound, the viability, T/C [25] was 34.6%, the viability, T/C [26] was 27.5% and the viability, T/C [13] was 55.5%. For the same compound, the viability, T/C [14] was 48.1%, the viability, T/C [15] was 53.5% and the viability, T/C [16] was 41.1%. It also gave a viability, T/C [27] of 35.5%, a viability, T/C [28] of 29.6% and a viability, T/C [17] of 49.5%. For the same compound, the viability, T/C [18] was 63.5%, the viability, T/C [19] was 55.4% and the viability, T/C [20] was 40.5%. For the same compound, the viability, T/C [29] was 42.5% and the viability, T/C [30] was 38.3%.
For `Cn1nccc1Nc1nccc(-c2ccn(C(CO)c3ccc(Cl)c(F)c3)c(=O)c2)n1` (stereo not given) + CCN1CCN(Cc2ccc(Nc3ncc(F)c(-c4cc(F)c5nc(C)n(C(C)C)c5c4)n3)nc2)CC1, the IC50 (second compound 0.01 µM) was 121 nM, the IC50 (second compound 0.0316 µM) was 131 nM and the IC50 (second compound 0.1 µM) was 87.3 nM. The IC50 (second compound 0.316 µM) was less than 31.6 nM, the IC50 (second compound 1 µM) was less than 31.6 nM and the viability, T/C [1] was 77.9%. For the same compound, the viability, T/C [2] was 47.2%, the viability, T/C [3] was 46.7% and the viability, T/C [4] was 31.2%. It also gave a viability, T/C [21] of 26.9%, a viability, T/C [22] of 29.6% and a viability, T/C [5] of 60.9%. The viability, T/C [6] was 48.9%, the viability, T/C [7] was 45.9% and the viability, T/C [8] was 28%. The viability, T/C [23] was 26.2%, the viability, T/C [24] was 24.9% and the viability, T/C [9] was 57.1%. For the same compound, the viability, T/C [10] was 48.3%, the viability, T/C [11] was 40.5% and the viability, T/C [12] was 28.1%. For the same compound, the viability, T/C [25] was 31.2%, the viability, T/C [26] was 24.9% and the viability, T/C [13] was 49.7%. It also gave a viability, T/C [14] of 46.4%, a viability, T/C [15] of 37.1% and a viability, T/C [16] of 34%. It also gave a viability, T/C [27] of 24.6%, a viability, T/C [28] of 28.5% and a viability, T/C [17] of 42.8%. The viability, T/C [18] was 50%, the viability, T/C [19] was 40.3% and the viability, T/C [20] was 29.3%. It also gave a viability, T/C [29] of 25.5% and a viability, T/C [30] of 23.1%.
